# Patent publication US7790721B2, “Pyrroloquinoxalinone inhibitors of poly(ADP-ribose)polymerase” (Abbott Laboratories, priority 2006, dated 2010)
# Biological target: T1, PARP-1 (Homo sapiens, UniProt P09874)
# T1 construct: purchased Trevigen (Gaithersburg, Md.); host or cells: E. coli
# Test: PARP1 assay (inhibition of PARP, [3H]-NAD+ / biotinylated histone H1, FlashPlate scintillation)
# Assay type: biochemical
# Settings: not given
# T1 sequence (P09874 whole entry): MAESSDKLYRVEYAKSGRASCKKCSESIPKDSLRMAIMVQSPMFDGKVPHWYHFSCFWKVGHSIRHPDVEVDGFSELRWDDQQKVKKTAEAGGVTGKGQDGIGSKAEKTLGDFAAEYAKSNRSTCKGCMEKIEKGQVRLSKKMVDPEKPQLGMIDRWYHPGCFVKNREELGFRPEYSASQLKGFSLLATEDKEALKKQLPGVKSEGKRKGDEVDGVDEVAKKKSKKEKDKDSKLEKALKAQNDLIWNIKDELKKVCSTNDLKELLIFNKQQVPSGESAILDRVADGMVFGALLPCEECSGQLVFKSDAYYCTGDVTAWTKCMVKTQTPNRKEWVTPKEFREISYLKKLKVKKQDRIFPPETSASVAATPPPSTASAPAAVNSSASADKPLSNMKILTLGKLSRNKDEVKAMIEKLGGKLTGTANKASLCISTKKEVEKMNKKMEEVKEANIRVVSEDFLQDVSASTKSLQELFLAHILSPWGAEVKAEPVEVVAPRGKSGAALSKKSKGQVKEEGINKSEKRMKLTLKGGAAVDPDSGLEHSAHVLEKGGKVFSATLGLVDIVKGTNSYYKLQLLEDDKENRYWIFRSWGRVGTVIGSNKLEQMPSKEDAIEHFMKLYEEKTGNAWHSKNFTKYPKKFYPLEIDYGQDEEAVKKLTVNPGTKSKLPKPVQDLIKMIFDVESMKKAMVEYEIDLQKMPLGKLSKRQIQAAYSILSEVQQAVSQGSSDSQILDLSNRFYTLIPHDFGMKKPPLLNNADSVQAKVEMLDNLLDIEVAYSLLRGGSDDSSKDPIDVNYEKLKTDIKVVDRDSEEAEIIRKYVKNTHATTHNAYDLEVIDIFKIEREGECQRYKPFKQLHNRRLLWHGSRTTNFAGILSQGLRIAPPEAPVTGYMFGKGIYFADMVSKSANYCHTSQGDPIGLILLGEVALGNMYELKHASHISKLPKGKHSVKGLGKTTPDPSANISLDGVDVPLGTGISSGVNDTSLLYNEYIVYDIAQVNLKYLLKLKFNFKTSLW
row,Ki [nM],Molecule
1,127,"O=c1[nH]c2cc(CNCc3ccccc3)ccc2n2cccc12 [Example 11, 7-((benzylamino)methyl)pyrrolo[1,2-a]quinoxalin-4(5H)-one]"

# Same assay, conditions: recombinant human PARP, 1 nM enzyme, 1.5 μM [3H]-NAD+; inhibition curves at various substrate concentrations; read-out: PARP-1 (Ki)
row,Molecule,Ki [nM]
1,"8-(((2-ethoxyethyl)(methyl)amino)methyl)-5,6-dihydro-4H-pyrrolo[1,2-a][1,4]benzodiazepin-4-one [Example 30]",2650
2,"O=c1[nH]c2cc(CNC3CCCC3)ccc2n2cccc12 [Example 4, 7-((cyclopentylamino)methyl)pyrrolo[1,2-a]quinoxalin-4(5H)-one]",179
3,"O=c1[nH]c2ccc(CNCC3CCCCC3)cc2n2cccc12 [Example 9, 8-(((cyclohexylmethyl)amino)methyl)pyrrolo[1,2-a]quinoxalin-4(5H)-one]",206
4,"O=c1[nH]c2ccc(CNCCc3ccccc3)cc2n2cccc12 [Example 14, 8-(((2-phenylethyl)amino)methyl)pyrrolo[1,2-a]quinoxalin-4(5H)-one]",98
5,"O=c1[nH]c2ccc(CNC3CCC3)cc2n2cccc12 [Example 16, 8-((cyclobutylamino)methyl)pyrrolo[1,2-a]quinoxalin-4(5H)-one]",51
6,"O=c1[nH]c2ccc(CN3CCOCC3)cc2n2cccc12 [Example 17, 8-(morpholin-4-ylmethyl)pyrrolo[1,2-a]quinoxalin-4(5H)-one]",130
7,"O=c1[nH]c2ccc(CNC3CCCC3)cc2n2cccc12 [Example 18, 8-((cyclopentylamino)methyl)pyrrolo[1,2-a]quinoxalin-4(5H)-one]",79
8,"O=c1[nH]c2ccc(CNCc3ccccc3)cc2n2cccc12 [Example 20, 8-((benzylamino)methyl)pyrrolo[1,2-a]quinoxalin-4(5H)-one]",131
9,"O=c1[nH]c2cc(CN3CCCC3)ccc2n2ccnc12 [Example 21, 7-(pyrrolidin-1-ylmethyl)imidazo[1,2-a]quinoxalin-4(5H)-one]",280
10,"O=c1[nH]c2cc(CN3CCCCC3)ccc2n2ccnc12 [Example 22, 7-(piperidin-1-ylmethyl)imidazo[1,2-a]quinoxalin-4(5H)-one]",330
11,"CN(C)Cc1ccc2c(c1)[nH]c(=O)c1nccn12 [Example 23, 7-((dimethylamino)methyl)imidazo[1,2-a]quinoxalin-4(5H)-one]",519
12,"O=c1[nH]c2cc(CN3CCOCC3)ccc2n2ccnc12 [Example 25, 7-(morpholin4-ylmethyl)imidazo[1,2-a]quinoxalin-4(5H)-one]",2850
13,"O=C1NCc2cc(CNCc3ccccc3)ccc2-n2cccc21 [Example 32, 8-((benzylamino)methyl)-5,6-dihydro-4H-pyrrolo[1,2-a][1,4]benzodiazepin-4-one]",809
14,"CC(C)N(C)Cc1ccc2c(c1)NC(=O)C1CCCCN21 (centres unmarked) [Example 41, 3-{[isopropyl(methyl)amino]methyl}-7,8,9,10-tetrahydro-5H-pyrido[1,2-a]quinoxalin-6(6aH)-one]",284

# The next lines start with the values.
row,Ki [nM],Molecule
1,7790,"CN1CCN(Cc2ccc3c(c2)NC(=O)C2CCCCN32)CC1 (centres unmarked) [Example 42, 3-[(4-methylpiperazin-1-yl)methyl]-7,8,9,10-tetrahydro-5H-pyrido[1,2-a]quinoxalin-6(6aH)-one]"
2,5180,"O=c1[nH]c2cc(CNCC3CCCCC3)ccc2n2ccnc12 [Example 24, 7-(((cyclohexylmethyl)amino)methyl)imidazo[1,2-a]quinoxalin-4(5H)-one]"
3,3490,"O=C1Nc2cc(CNC3CCCCC3)ccc2N2CCCCC12 (centres unmarked) [Example 36, 3-[(cyclohexylamino)methyl]-7,8,9,10-tetrahydro-5H-pyrido[1,2-a]quinoxalin-6(6aH)-one]"
4,2160,"CN(Cc1ccc2c(c1)NC(=O)C1CCCN21)C1CCCCC1 (centres unmarked) [Example 47, 7-{[cyclohexyl(methyl)amino]methyl}-1,2,3,3a-tetrahydropyrrolo[1,2-a]quinoxalin-4(5H)-one]"
5,1500,"CN1CCN(Cc2ccc3c(c2)CNC(=O)c2cccn2-3)CC1 [Example 29, 8-((4-methylpiperazin-1-yl)methyl)-5,6-dihydro-4H-pyrrolo[1,2-a][1,4]benzodiazepin-4-one]"
6,1500,"CN(Cc1ccc2c(c1)NC(=O)C1CCCCN21)C1CCCCC1 (centres unmarked) [Example 40, 3-{[cyclohexyl(methyl)amino]methyl}-7,8,9,10-tetrahydro-5H-pyrido[1,2-a]quinoxalin-6(6aH)-one]"
7,1490,"O=C1NCc2cc(CNCC3CCCCC3)ccc2-n2cccc21 [Example 31, 8-(((cyclohexylmethyl)amino)methyl)-5,6-dihydro-4H-pyrrolo[1,2-a][1,4]benzodiazepin-4-one]"
8,1470,"CC(C)NCc1ccc2c(c1)CNC(=O)c1cccn1-2 [Example 28, 8-((isopropylamino)methyl)-5,6-dihydro-4H-pyrrolo[1,2-a][1,4]benzodiazepin-4-one]"
9,1120,"O=C1NCc2cc(CN3CCCC3)ccc2-n2cccc21 [Example 27, 8-(pyrrolidin-1-ylmethyl)-5,6-dihydro-4H-pyrrolo[1,2-a][1,4]benzodiazepin-4-one]"
10,554,"O=C1NCc2cc(CNC3CCCC3)ccc2-n2cccc21 [Example 33, 8-((cyclopentylamino)methyl)-5,6-dihydro-4H-pyrrolo[1,2-a][1,4]benzodiazepin-4-one]"
11,474,"O=c1[nH]c2cc(CNC3CCCCC3)ccc2n2cccc12 [Example 1, 7-((cyclohexylamino)methyl)pyrrolo[1,2-a]quinoxalin-4(5H)-one]"
12,340,"CC(C)NCc1ccc2c(c1)NC(=O)C1CCCCN21 (centres unmarked) [Example 38, 3-[(isopropylamino)methyl]-7,8,9,10-tetrahydro-5H-pyrido[1,2-a]quinoxalin-6(6aH)-one]"
13,146,"O=C1Nc2cc(CN3CCCCC3)ccc2N2CCCC12 (centres unmarked) [Example 45, 7-(piperidin-1-ylmethyl)-1,2,3,3a-tetrahydropyrrolo[1,2-a]quinoxalin-4(5H)-one]"
14,130,"CCN(C)Cc1ccc2c(c1)NC(=O)C1CCCN21 (centres unmarked) [Example 46, 7-{[ethyl(methyl)amino]methyl}-1,2,3,3a-tetrahydropyrrolo[1,2-a]quinoxalin-4(5H)-one]"
15,99,"O=c1[nH]c2ccc(CNC3CCCCC3)cc2n2cccc12 [Example 8, 8-((cyclohexylamino)methyl)pyrrolo[1,2-a]quinoxalin-4(5H)-one]"
16,98,"O=C1Nc2cc(CN3CCCCC3)ccc2N2CCCCC12 (centres unmarked) [Example 37, 3-(piperidin-1-ylmethyl)-7,8,9,10-tetrahydro-5H-pyrido[1,2-a]quinoxalin-6(6aH)-one]"
17,91,"O=c1[nH]c2cc(CNCC3CCCCC3)ccc2n2cccc12 [Example 2, 7-(((cyclohexylmethyl)amino)methyl)pyrrolo[1,2-a]quinoxalin-4(5H)-one]"
18,83,"O=c1[nH]c2cc(CNC3CCC3)ccc2n2cccc12 [Example 3, 7-((cyclobutylamino)methyl)pyrrolo[1,2-a]quinoxalin-4(5H)-one]"
19,71,"CCN(C)Cc1ccc2c(c1)NC(=O)C1CCCCN21 (centres unmarked) [Example 39, 3-{[ethyl(methyl)amino]methyl}-7,8,9,10-tetrahydro-5H-pyrido[1,2-a]quinoxalin-6(6aH)-one]"
20,47,"O=c1[nH]c2ccc(CN3CCCCC3)cc2n2cccc12 [Example 19, 8-(piperidin-1-ylmethyl)pyrrolo[1,2-a]quinoxalin-4(5H)-one]"
